Test results published in patent US9987276B2 (Celgene CAR LLC, priority 2008, dated 2018).
Entries after “also recorded” stand apart in the source; their conditions may differ.

What was measured:
TEC kinase = TEC kinase (Homo sapiens (Human), UniProt P42680); test: Mass spectrometry for TEC kinase (tryptic digest); format: binding; conditions: 3 hrs at 10× excess
Procedure: TEC kinase (45 pmols; Invitrogen) was incubated with (I-2) (450 pmols) for 3 hrs at 10× excess prior to tryptic digestion. Iodoacetamide was used as the alkylating agent after compound incubation. […] For tryptic digests a 5 ul aliquot (7.5 pmols) was diluted with 15 ul of 0.1% TFA prior to micro C18 Zip Tipping directly onto the MALDI target using alpha cyano-4-hydroxy cinnamic acid as the matrix (5 mg/ml in 0.1% TFA:Acetonitrile 50:50).
As depicted in FIG. 6, the expected peptide ([…]) to be modified was immediately evident after reaction with I-2 (MI mass of 359.17 Da) at MH+ of 1294.72. The peptide was also quite evident in the control sample as modified by Iodacetamide at MH+ of 992.56. […] There was no evidence of other modified peptides.
The fragmentation spectra of the 360.17 peak did show diagnostic fragments that were apparent in the PSD spectra of the modified peptide at 1294.72 (See FIG. 6).
To further verify the presence of the modified peptides, both the iodoacetamide labeled (992.56) and I-2 labeled (1294.72) were subjected to PSD (MS/MS) analysis. After a database search of the NCBI nr Homo sapien database using Mascot MS/MS Ion Search program the top match was the expected peptide in both cases.
For tryptic digests the instrument was set in Reflectron mode with a pulsed extraction setting of 2200. Calibration was done using the Laser Biolabs Pep Mix standard ([…], 1296.69, 1672.92, 2093.09, 2465.20). For CID/PSD analysis the peptide was selected using cursors to set ion gate timing and fragmentation occurred at a laser power about 20% higher and He was used as the collision gas for CID. Calibration for fragments was done using the P14R fragmentation calibration for the Curved field Reflectron.
TEC kinase (45 pmols; Invitrogen) was incubated with (I-4) (450 pmols) for 3 hrs at 10× excess prior to tryptic digestion. Iodoacetamide was used as the alkylating agent after compound incubation. […]

Erbb4 kinase domain = Erbb4 kinase domain (Homo sapiens (Human), UniProt Q15303); test: Mass spectrometry for ERBB4; format: binding; conditions: 60 minutes at 10-fold excess of compound
Procedure: Erbb4 kinase domain (Upstate) was incubated with compound for 60 minutes at 10-fold excess of compound I-4 and I-11 to protein. 1 μl aliquots of the samples (total volume of 4.24 ul) were diluted with 10 μl of 0.1% TFA prior to micro C4 ZipTipping directly onto the MALDI target using Sinapinic acid as the desorption matrix (10 mg/ml in 0.1% TFA:Acetonitrile 50:50). For intact protein mass measurement the instrument was set in Linear mode using a pulsed extraction setting of 16,952 for the myoglobin standard used to calibrate the instrument (Shimadzu Axima TOF^2).
Intact ErbB4 protein occurs at MH+ of 35850 with corresponding sinapinic (matrix) adducts occurring about 200 Da higher. A stochiometric incorporation of the test compound (I-4 and I-11) (Mw of 410 Da) produced a new mass peak which is approximately 410 Da higher (MH+ of 36260).

BTK = BTK (Homo sapiens (Human), UniProt Q06187); test: Washout experiment with I-7 and probe compound I-215 in Ramos cells; format: cell-based; conditions: 0.1 μM for 1 hour
Chain of BTK (Q06187 whole entry): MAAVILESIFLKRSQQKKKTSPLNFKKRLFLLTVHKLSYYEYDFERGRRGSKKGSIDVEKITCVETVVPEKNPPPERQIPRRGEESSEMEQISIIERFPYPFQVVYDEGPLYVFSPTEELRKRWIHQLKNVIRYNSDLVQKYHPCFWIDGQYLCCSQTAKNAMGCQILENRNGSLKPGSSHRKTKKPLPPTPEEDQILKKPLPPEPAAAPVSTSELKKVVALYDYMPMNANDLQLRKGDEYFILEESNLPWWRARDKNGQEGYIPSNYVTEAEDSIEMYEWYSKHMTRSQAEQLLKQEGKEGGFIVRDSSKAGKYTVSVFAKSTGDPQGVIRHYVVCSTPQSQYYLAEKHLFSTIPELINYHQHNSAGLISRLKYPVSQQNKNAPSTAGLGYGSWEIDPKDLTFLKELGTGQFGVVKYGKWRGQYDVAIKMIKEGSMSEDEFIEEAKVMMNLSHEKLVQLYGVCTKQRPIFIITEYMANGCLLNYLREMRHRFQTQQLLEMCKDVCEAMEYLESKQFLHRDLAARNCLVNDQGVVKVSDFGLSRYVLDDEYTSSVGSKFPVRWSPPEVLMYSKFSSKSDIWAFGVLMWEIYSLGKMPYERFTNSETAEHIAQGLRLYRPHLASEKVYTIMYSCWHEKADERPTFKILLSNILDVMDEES

Chain of TEC kinase (P42680 whole entry): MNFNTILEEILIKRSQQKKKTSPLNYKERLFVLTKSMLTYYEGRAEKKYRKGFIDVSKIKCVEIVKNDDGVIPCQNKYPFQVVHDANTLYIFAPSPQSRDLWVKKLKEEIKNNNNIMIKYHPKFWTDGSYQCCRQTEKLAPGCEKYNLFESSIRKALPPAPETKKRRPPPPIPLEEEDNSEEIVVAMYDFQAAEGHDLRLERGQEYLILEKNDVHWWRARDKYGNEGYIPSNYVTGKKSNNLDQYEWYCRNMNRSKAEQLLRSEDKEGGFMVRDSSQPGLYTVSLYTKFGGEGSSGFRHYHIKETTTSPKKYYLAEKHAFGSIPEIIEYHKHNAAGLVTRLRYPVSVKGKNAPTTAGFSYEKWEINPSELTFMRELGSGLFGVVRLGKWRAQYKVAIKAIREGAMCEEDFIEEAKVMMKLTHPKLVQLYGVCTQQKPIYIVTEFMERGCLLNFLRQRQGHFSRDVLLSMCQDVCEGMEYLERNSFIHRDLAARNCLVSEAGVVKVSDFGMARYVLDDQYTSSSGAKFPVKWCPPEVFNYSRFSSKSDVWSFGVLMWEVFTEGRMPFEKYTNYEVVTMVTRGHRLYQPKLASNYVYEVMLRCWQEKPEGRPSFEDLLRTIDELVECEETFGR
Chain of Erbb4 kinase domain (Q15303 718-985): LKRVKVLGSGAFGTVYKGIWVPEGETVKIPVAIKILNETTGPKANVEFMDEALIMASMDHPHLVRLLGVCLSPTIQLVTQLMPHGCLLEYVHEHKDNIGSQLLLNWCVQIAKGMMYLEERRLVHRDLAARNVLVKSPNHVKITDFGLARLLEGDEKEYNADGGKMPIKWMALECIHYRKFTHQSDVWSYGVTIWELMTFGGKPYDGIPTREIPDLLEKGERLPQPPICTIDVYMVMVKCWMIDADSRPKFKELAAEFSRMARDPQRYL

| covalent modification of ErbB4 (mass spectrometry) (Erbb4 kinase domain) | time BTK protein remains occupied after compound removal (BTK) | Compound | covalent modification of TEC kinase (Cys449, peptide GCLLNFLR) by mass spectrometry (TEC kinase) |
| --- | --- | --- | --- |
| covalent modification | – | Cc1cccc(Nc2nc(Nc3cccc(NC(=O)/C=C/CN(C)C)c3)ncc2F)c1 [Compound I-4, (E)-4-(dimethylamino)-N-(3-(5-fluoro-4-(m-tolylamino)pyrimidin-2-ylamino)phenyl)but-2-enamide] | reaction was complete; also recorded: covalent modification |
| – | over 8 hours | C=CC(=O)Nc1cccc(Nc2nc(Nc3ccccc3)ncc2C)c1 [Compound I-7, N-(3-(5-methyl-2-(phenylamino)pyrimidin-4-ylamino)phenyl) acrylamide] | reaction was complete; also recorded: covalent modification |
